Columns and labels:
Type in all cases: cell-based, human
[1] = test system: 1549, H1355 and SK-MES cells; assay: Chemoresistance by colony formation assay; conditions: stimulated with Loxoribine 100 μM and/or polyU 10 μg/ml on days 0, 3, 6, 9
Description: Alternatively, chemoresistance was assessed by the colony formation assay. In this assay, 1549, H1355 and SK-MES cells were seeded in 6-well plates (500 cells per well) and incubated for 15 days at 37° under 5% CO2. The cells were left unstimulated or stimulated 100 μM Loxoribine or with 10 μg/ml single-stranded polyU RNA (InvivoGen) on days 0, 3, 6 and 9. On day 12, different anti-cancer agents were added at the respective LD50 (cisplatin and carboplatin 100 μM, navelbine 50 μM, doxorubicine 2 nM). On day 15, the wells ware washed with PBS, and stained with 6% (vol/vol) glutaraldehyde, 0.5% (wt/vol) crystal violet in water for 30 minutes. The cells were washed and the colonies of more than 50 cells counted. Cell survival was calculated as follows: number of colonies after chemotherapy/number of cells seeded on day 0×plating efficiency, where the plating efficiency is number of colonies/number of cells seeded.

[2] = test system: IκBα (NF-κB activation) in A549 cells; assay: Western blot of IκBα phosphorylation and degradation (NF-κB activation) in A549 cells; conditions: loxoribine 10 μg/ml or Poly U 10 μg/ml
Description: FIG. 3 TLR7 and TLR8 lead to IκBα phosphorylation, but not degradation. A549 cells were untreated or treated with TNF-α (10 ng/ml) (A, B), loxoribine (10 μg/ml) (C, D), or Poly U (10 μg/ml) (E, F) for the indicated periods of time. The cell lysates were analyzed by immunoblot with anti-phospho-specific IκBα, anti-IκBα and anti-actin antibodies (A, C, E). Quantification of the bands was realized using Image J software (B, D, F). Histograms represent the intensity of each band observed in the blots at the indicated time point and are expressed in arbitrary units normalized to actin intensity (relative intensity) both for phospho-IκBα and IκBα. Results are representative of three independent experiments.
A549 cells (1.10^6 cells) were starved for 4 hours in medium containing 2% FCS, and then stimulated with loxoribine, PolyU, or TNFα (10 ng/ml) for different periods of time as indicated. Cells were lysed in 50 mM Tris-HCl, pH 7.5, 150 mM NaCl, 2 mM EDTA, 0.5% triton X100, 2 mM Na3VO4, 10 mM NaF, and 10 mM sodium pyrophosphate supplemented with a complete protease inhibitor cocktail (Boehringer, Paris, France). Protein contents in the cell lysates were quantified using the quick start Bradford protein assay kit (Biorad, Marnes-La-Coquette, France) to ensure that all samples contained similar amounts of protein. Proteins (30 μg) were resolved in 10% Tris-glycine polyacrylamide gels (Invitrogen, Cergy Pontoise, France) and transferred to PVDF immobilon-P membranes (Millipore, Molsheim, France). Blots were probed with monoclonal antibody against phospho-IκBα (Cell Signaling Technology, Danvers, USA), total IκBα, and actin (Santa Cruz, Le Perray en Yvelines, France).
In order to determine if the TLR7 and 8 expressed by lung tumor cell lines were able to induce intracellular signaling pathways, we studied NF-κB activation in response to stimulation with TNFα, loxoribine (homodimeric TLR7 ligand), or Poly U (homodimeric TLR8 ligand). […] In contrast TLR7 or 8 stimulation led to atypical NF-κB activation. […] Furthermore, we also observed that the kinetics of IκBα phosphorylation were dependent on the stimulus. On the one hand, TNFα stimulation induced two waves of IκBα phosphorylation; the first one after ten minutes was associated with IκBα degradation, and the second one after sixty minutes was not associated with IκBα degradation. On the other hand, we observed that TLR stimulation induced only a phosphorylation of IκBα, with a maximum phosphorylation obtained after thirty minutes without degradation of IκBα.

[3] = test system: Bcl-2 expression in A549 cells; assay: Bcl-2 expression, Taq Man Low Density Array, A549; conditions: 6 h, RT-PCR
Description: FIG. 4 TLR7 and 8 induce survival of lung tumor cells. (A) A549 cells were unstimulated, stimulated with loxoribine (10 μg/ml), Poly U (10 μg/ml), or Gardiquimod(10μg/ml) and incubated with Alamar blue for 10 days. Reduction of Alamar blue was then determined by spectrophotometry at 570 and 600 nm. The percentage of reduced Alamar blue was calculated as described by the manufacturer. A549 cells were unstimulated or stimulated with loxoribine, Poly U, Gardiquimod, etoposide, or cycloheximide for 24 h. (B) The percentage of dead cells was determined by Trypan blue exclusion. (C) The DNA content was measured by IP staining after RNAse A treatment. The percentages indicate the proportion of subdiploid (G0/G1) and […]. Data represent mean values±SD from 3 independent experiments (*p<0.05; ** p<0.01, Student test). (D) A549 cells were cultured for 6 h in the presence of loxoribine, Poly U, or Gardiquimod, and the expression of Bcl-2 was assayed using Taq Man Low Density Array technology. The ΔCT values for Bcl-2 expression were calculated by subtraction of the CT value obtained for the 18S housekeeping gene. The ΔΔCT values were obtained by subtraction of ΔCT values for unstimulated cells from those obtained for stimulated cells. […]
Total RNA was extracted from A549 or SK-MES cells stimulated with loxoribine, Poly U, or Gardiquimod for 6 h or from purified human lung cancer cells using the RNeasy isolation-kit RNA (Qiagen, Courtaboeuf, France). The integrity and the quantity of the RNA were evaluated with a bioanalyzer-2100 (Agilent Technologies). All samples were assessed for gene expression analysis using the Taq Man Low-Density Array angiogenesis and immune panel (Applied Biosystem). […] Quantitative real-time TaqMan-PCR was performed using Low-Density-Arrays and the 7900 robotic real-time PCR-system (Applied-Biosystems). […] Data were analyzed using the SDS Software v2.2 (Applied-Biosystems). The ΔCT values were calculated for each gene by subtraction of the CT value of the 18S housekeeping gene from the CT of the gene of interest. […]

Compound	resistance of colonies to combined anti-cancer agents [1]	time at which IκBα was phosphorylated (maximum phosphorylation) [2]	Bcl-2 expression compared to untreated cells [3]
C=CCn1c(=O)n([C@@H]2O[C@H](CO)[C@@H](O)[C@H]2O)c2nc(N)[nH]c(=O)c21 [loxoribine, 7-allyl-7,8-dihydro-8-oxo-guanosine]	more resistant to treatment with combined anti-cancer agents	thirty	increased expression of Bcl-2
Poly U	more resistant to treatment with combined anti-cancer agents	thirty	increased expression of Bcl-2
